Where “and” joins values, the source holds several entries; their conditions need not be identical. Equal values may be shown once.
How the values were obtained:
[1] = biological target: α1β2(N265S)γ2S GABAAR (Rattus norvegicus, UniProt P62813+P63138, N289S); assay: Two-electrode voltage clamp, potentiation of low GABA currents in oocytes; assay type: cell-based, rat (β2 rat or human)
[2] = biological target: T1, α1β2γ2L GABAAR (Rattus norvegicus, UniProt P62813+P63138); assay: Functional competition assay
[3] = biological target: T1, α1β2γ2L GABAAR; assay: Two-electrode voltage clamp, concentration-response and mechanistic; assay type: cell-based, rat (β2 rat or human)
[4] = biological target: α1β2γ2S GABAAR (Rattus norvegicus, UniProt P62813+P63138); assay type: cell-based, rat (β2 rat or human); conditions: 10 μM loreclezole, n = 5 oocytes
[5] = biological target: α1(Q241L)β2γ2L GABAAR (Rattus norvegicus, UniProt P62813+P63138, Q268L); assay: Two-electrode voltage clamp, potentiation of low GABA currents in oocytes; assay type: cell-based, rat (β2 rat or human); conditions: 30 μM GABA alone

## [Cl-].[Cl-].[Zn+2] [ZnCl2]
[1]; 10 μM ZnCl2 pre-applied 60 s then co-applied with GABA
  change of GABA responses (positive = potentiation): +11 ± 1%

## CC(=O)[C@H]1CC[C@H]2[C@@H]3CC[C@@H]4C[C@H](O)CC[C@]4(C)[C@H]3CC[C@]12C [pregnanolone, 1-[(1S,3aS,3bR,5aR,7R,9aS,9bS,11aS)-7-Hydroxy-9a,11a-dimethylhexadecahydro-1H-cyclopenta[a]phenanthren-1-yl]ethan-1-one, reference compound]
[2]; 2 μM pregnanolone alone
  PA of peak response: 0.005 ± 0.002

## Cl/C(=C\n1cncn1)c1ccc(Cl)cc1Cl [loreclezole, reference compound]
[1]; 10 μM loreclezole, n = 4 oocytes
  potentiation of the responses to low GABA: 36 ± 6%
[3]
  EC50: 3.4 ± 0.6 µM
  Kd: 7.1 ± 2 µM
[3]; 10 μM GABA, Eq. 1, n = 6 oocytes
  cLor: 0.251 ± 0.049 and 0.251
[3]; loreclezole, 10 μM GABA, Hill equation
  nH: 1.27 ± 0.41
[4]
  potentiation of the responses to low GABA: 269 ± 46%
[2]; 10 μM loreclezole, 0.75 μM GABA
  potentiation of the peak response to GABA: 643 ± 91%
[2]; 10 μM loreclezole, 1 μM R(+)-etomidate
  enhancement of the peak response from receptors activated by R(+)-etomidate: 395 ± 48%
[2]; 0.2–0.5 μM GABA + 3 μM loreclezole
  PA of the peak response: 0.08 ± 0.05

## NCCCC(=O)O [GABA, γ-aminobutyric acid, reference compound]
[5]
  PA (probability of being in the active state) of peak response: 0.19 ± 0.05
[3]; 2 μM GABA alone, normalized to 1 mM GABA + 50 μM propofol
  PA (probability of being in the active state) of peak response: 0.18 and 0.17 ± 0.02 and 0.15 ± 0.02
[3]; 10 μM GABA alone, n = 6 oocytes
  PA of peak response: 0.26 ± 0.03
[2]; 0.05 μM GABA alone
  PA of peak response: 0.004 ± 0.001
[2]; 0.75 μM GABA alone
  PA of peak response: 0.051 ± 0.018
[2]; 0.2–0.5 μM GABA alone, n = 7 oocytes
  mean PA of the peak response: 0.009 ± 0.008
[2]; 1–2 μM GABA alone
  PA of peak response: 0.030 ± 0.007

— publication PMC9178925 (Biochemical pharmacology, 2022)
